Biological target: T1, full-length SARM1 (FL-SARM1) (Homo sapiens, UniProt Q6SZW1)
T1 sequence (Q6SZW1 28-724): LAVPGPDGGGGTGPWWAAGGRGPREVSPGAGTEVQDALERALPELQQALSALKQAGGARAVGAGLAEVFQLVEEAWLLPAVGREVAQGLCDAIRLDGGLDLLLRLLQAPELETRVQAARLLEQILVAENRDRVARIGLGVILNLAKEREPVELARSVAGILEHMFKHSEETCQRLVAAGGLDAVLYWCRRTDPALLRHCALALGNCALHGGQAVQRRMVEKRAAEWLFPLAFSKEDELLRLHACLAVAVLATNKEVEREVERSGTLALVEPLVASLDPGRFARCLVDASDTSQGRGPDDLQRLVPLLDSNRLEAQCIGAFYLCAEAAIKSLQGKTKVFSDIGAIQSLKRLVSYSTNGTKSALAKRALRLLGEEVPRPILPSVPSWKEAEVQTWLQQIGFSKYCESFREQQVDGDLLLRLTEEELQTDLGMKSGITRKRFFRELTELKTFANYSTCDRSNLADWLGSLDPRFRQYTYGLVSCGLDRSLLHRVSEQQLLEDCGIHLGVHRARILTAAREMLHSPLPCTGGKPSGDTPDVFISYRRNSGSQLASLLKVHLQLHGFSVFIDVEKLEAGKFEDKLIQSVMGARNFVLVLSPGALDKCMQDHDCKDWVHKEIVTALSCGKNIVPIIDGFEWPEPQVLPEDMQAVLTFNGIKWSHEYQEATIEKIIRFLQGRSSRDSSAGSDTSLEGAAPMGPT
Assay: FL-SARM1 cellular lysate assay (NAD/NADH-Glo readout of remaining NAD+)
Details: SARM1 cellular lysate from transfected HEK293T cells, NAD+ and NMN, 11 point curve
Experimental: Preparation of full-length SARM1 (FL-SARM1) lysate: HEK293T cells (ATCC: CRL-3216) were grown on 150 mm TC-treated dishes to 80-90% confluency in complete DMEM (Thermo Fisher: 11965175) supplemented with 10% HI-FBS (VWR: 10802-772), 1× Pen/Strep (Thermo Fisher: 15140122), 1× NEAA (Thermo Fisher: 1140050), 1× glutamax (Thermo Fisher: 35050061), and 1 mM sodium pyruvate (Thermo Fisher: 11360070)) at 37° C. and 5% CO2. One hour prior to transfection, the media was replaced with fresh, 37° C. complete DMEM (20 mL per one 150 mm dish) supplemented with additional 10 mM glucose (Alfa Aesar AAJ60067EQE). Per one 150 mm dish, 30 μg FL-SARM1 (SEQ. ID. 1; cloned in-house) plasmid was dissolved in 1 mL DMEM at ambient temperature and were mixed by inverting the tube 8-10 times. 90 μL of GenJet™ in vitro DNA transfection reagent (Ver2) was dissolved in 1 mL DMEM at ambient temperature and were mixed by inverting the tube 8-10 times. The plasmid and transfection agent solutions were combined, mixed by 8-10 inversions and incubated for 10 minutes at ambient temperature. 2 mL of this transfection mixture was added to each dish containing HEK293T cells as prepared above followed by a gentle mixing of 4-5 horizontal rotations. The dishes were incubated at 37° C. and 5% CO2 for 24 h. The dishes were removed from the incubator, the medium was aspirated and the cells were scraped off using cell scrapers in ice-cold 1× PBS (5 mL/dish, Thermo Fisher Scientific 10010023). The collected cells were centrifuged at 300 g for 5 minutes at 4° C. The supernatant was aspirated and the pellet was frozen at −80° C. until needed. The cell pellet from 30 dishes was dissolved in 30 mL 1× PBS supplemented with 4 tablets of Complete, Mini EDTA-free protease inhibitor cocktail at 4° C. This mixture was sonicated on ice for 10 minutes at 50% amplitude with a 1 second on/1 second off interval using a Model 120 sonicator (Thermo Fisher Scientific, FB120110). The lysate was centrifuged at 16000 g for 10 minutes at 4° C.
To a white 384-well Proxiplate (PerkinElmer, PE-6008280) was added 50 nL/well of a DMSO solution containing test compounds followed by 7.5 mL/well of a 0.067 mg/mL solution of SARM1 cellular lysate in reaction buffer (DPBS containing CHAPSO (0.1%) and fatty acid free BSA (0.032%)). The plate was centrifuged for 1 minute at 1000 RPM and then placed in an incubator at 23° C. for 15 minutes. To the wells were added 2.5 mL/well of a solution containing 40 mM NAD^+ and 4 mM NMN in reaction buffer. The plate was centrifuged for 1 min at 1000 RPM, the plate was sealed and placed in an incubator at 23° C. for 3.5 hours before adding 3.5 mL/well of NAD/NADH-Glo™ solution (preparation as described by Promega using the extended detection protocol). The plate was centrifuged for 1 minute at 1000 RPM and then incubated at 23° C. for 20 minutes. 1 mL/well of a 3.625 mM solution of menadione in DMSO was added and the plate was centrifuged for 1 minute at 1000 RPM. […] Percent inhibition was calculated as follows:
IC50 values were calculated from an 11 point curve using ½ log dilutions using a four-parameter logistic regression curve fit.

SMILES: COc1cncc(-c2cc(NC(=O)N3[C@@H]4C[C@@H](C)C[C@@]3(c3nnc(C)o3)C4)c(F)cc2C(F)(F)F)c1 (single isomer, unassigned) [Example 123, cis-N-(2-fluoro-5-(5-methoxypyridin-3-yl)-4-(trifluoromethyl)phenyl)-3-methyl-1-(5-methyl-1,3,4-oxadiazol-2-yl)-6-azabicyclo[3.1.1]heptane-6-carboxamide]
- IC50 (Activity (μM)): 0.006 µM
- IC50 (Activity): 0.0001 to 1 µM

SMILES: Cc1nnc([C@]23C[C@H](C)C[C@H](C2)N3C(=O)Nc2cc(-c3cncc(F)c3)c(C)cc2F)o1 (single isomer, unassigned) [Example 124, cis-N-(2-fluoro-5-(5-fluoropyridin-3-yl)-4-methylphenyl)-3-methyl-1-(5-methyl-1,3,4-oxadiazol-2-yl)-6-azabicyclo[3.1.1]heptane-6-carboxamide]
- IC50 (Activity (μM)): 5.5 µM
- IC50 (Activity): 1 to 10 µM

SMILES: Cc1nnc([C@]23C[C@H](C)C[C@H](C2)N3C(=O)Nc2cc(-c3cncc(F)c3)c(C)cc2F)o1 (single isomer, unassigned) [Example 125, cis-N-(2-fluoro-5-(5-fluoropyridin-3-yl)-4-methylphenyl)-3-methyl-1-(5-methyl-1,3,4-oxadiazol-2-yl)-6-azabicyclo[3.1.1]heptane-6-carboxamide]
- IC50 (Activity (μM)): 0.025 µM
- IC50 (Activity): 0.0001 to 1 µM

SMILES: Cc1nnc([C@]23C[C@H](C)C[C@H](C2)N3C(=O)Nc2ccc(C)c(-c3cncc(F)c3)c2)o1 (single isomer, unassigned) [Example 127, cis-N-(3-(5-fluoropyridin-3-yl)-4-methylphenyl)-3-methyl-1-(5-methyl-1,3,4-oxadiazol-2-yl)-6-azabicyclo[3.1.1]heptane-6-carboxamide]
- IC50 (Activity (μM)): 0.01 µM
- IC50 (Activity): 0.0001 to 1 µM

SMILES: Cc1nnc([C@]23C[C@H](C)C[C@H](C2)N3C(=O)Nc2ccc(C)c(-c3cncc(F)c3)c2)o1 (single isomer, unassigned) [Example 128, cis-N-(3-(5-fluoropyridin-3-yl)-4-methylphenyl)-3-methyl-1-(5-methyl-1,3,4-oxadiazol-2-yl)-6-azabicyclo[3.1.1]heptane-6-carboxamide]
- IC50 (Activity (μM)): 11.6 µM
- IC50 (Activity): > 10 µM

SMILES: Cc1nnc([C@]23C[C@H](C)C[C@H](C2)N3C(=O)Nc2cc(-c3cncc(F)c3)c(Cl)cc2F)o1 (single isomer, unassigned) [Example 132, cis-N-(4-chloro-2-fluoro-5-(5-fluoropyridin-3-yl)phenyl)-3-methyl-1-(5-methyl-1,3,4-oxadiazol-2-yl)-6-azabicyclo[3.1.1]heptane-6-carboxamide]
- IC50 (Activity (μM)): 0.05 µM
- IC50 (Activity): 0.0001 to 1 µM

SMILES: Cc1nnc([C@]23C[C@H](C)C[C@H](C2)N3C(=O)Nc2cc(-c3cncc(F)c3)c(Cl)cc2F)o1 (single isomer, unassigned) [Example 133, cis-N-(4-chloro-2-fluoro-5-(5-fluoropyridin-3-yl)phenyl)-3-methyl-1-(5-methyl-1,3,4-oxadiazol-2-yl)-6-azabicyclo[3.1.1]heptane-6-carboxamide]
- IC50 (Activity (μM)): 38 µM
- IC50 (Activity): > 10 µM

SMILES: Cc1nnc([C@@]23C[C@@H](C)C[C@@H](C2)N3C(=O)Nc2ccc(Cl)c(-c3cncc(F)c3)c2)o1 (single isomer, unassigned) [Example 134, cis-N-[4-chloro-3-(5-fluoro-3-pyridinyl)phenyl]-3-methyl-1-(5-methyl-1,3,4-oxadiazol-2-yl)-6-azabicyclo[3.1.1]heptane-6-carboxamide]
- IC50 (Activity (μM)): 0.02 µM
- IC50 (Activity): 0.0001 to 1 µM

SMILES: Cc1nnc([C@]23C[C@H](C)C[C@H](C2)N3C(=O)Nc2cc(-c3cncc(F)c3)c(C(F)(F)F)cc2F)o1 (single isomer, unassigned) [Example 135, cis-N-[2-fluoro-5-(5-fluoro-3-pyridinyl)-4-(trifluoromethyl)phenyl]-3-methyl-1-(5-methyl-1,3,4-oxadiazol-2-yl)-6-azabicyclo[3.1.1]heptane-6-carboxamide]
- IC50 (Activity (μM)): 0.03 µM
- IC50 (Activity): 0.0001 to 1 µM

SMILES: Cc1ccc(NC(=O)N2C3C[C@H]2C[C@]2(C3)CC2(F)F)cc1-c1cncc(F)c1 (stereo in doubt) [Example 10, trans-2′,2′-difluoro-N-(3-(5-fluoropyridin-3-yl)-4-methylphenyl)-6-azaspiro[bicyclo[3.1.1]heptane-3,1′-cyclopropane]-6-carboxamide]
- IC50 (Activity (μM)): 0.3 µM
- IC50 (Activity): 0.0001 to 1 µM

SMILES: Cc1ccc(NC(=O)N2C3C[C@@H]2C[C@@](C)(C#N)C3)cc1-c1cncc(F)c1 (stereo in doubt) [Example 43, cis-3-cyano-N-(3-(5-fluoropyridin-3-yl)-4-methylphenyl)-3-methyl-6-azabicyclo[3.1.1]heptane-6-carboxamide]
- IC50 (Activity (μM)): 0.5 µM
- IC50 (Activity): 0.0001 to 1 µM

SMILES: Cc1ccc(NC(=O)N2C3C[C@H](CF)C[C@@H]2C3)cc1-c1cncc(F)c1 [Example 1, cis-3-(fluoromethyl)-N-(3-(5-fluoropyridin-3-yl)-4-methylphenyl)-6-azabicyclo[3.1.1]heptane-6-carboxamide]
- IC50 (Activity (μM)): 0.06 µM
- IC50 (Activity): 0.0001 to 1 µM

SMILES: CCO[C@@H]1C[C@@H]2C[C@H](C1)N2C(=O)Nc1ccc(C)c(-c2cncc(F)c2)c1 [Example 2, cis-3-ethoxy-N-(3-(5-fluoropyridin-3-yl)-4-methylphenyl)-6-azabicyclo[3.1.1]heptane-6-carboxamide]
- IC50 (Activity (μM)): 3.3 µM
- IC50 (Activity): 1 to 10 µM

SMILES: CO[C@H]1CC2C[C@H](C1)N2C(=O)Nc1cc(-c2cncc(F)c2)c(C)cc1F [Example 3, trans-N-(2-fluoro-5-(5-fluoropyridin-3-yl)-4-methylphenyl)-3-methoxy-6-azabicyclo[3.1.1]heptane-6-carboxamide]
- IC50 (Activity (μM)): 2.5 µM
- IC50 (Activity): 1 to 10 µM

SMILES: Cc1ccc(NC(=O)N2C3C[C@@H](C(F)F)C[C@@H]2C3)cc1-c1cncc(F)c1 [Example 4, trans-3-(difluoromethyl)-N-(3-(5-fluoropyridin-3-yl)-4-methylphenyl)-6-azabicyclo[3.1.1]heptane-6-carboxamide]
- IC50 (Activity (μM)): 0.1 µM
- IC50 (Activity): 0.0001 to 1 µM

SMILES: Cc1ccc(NC(=O)N2C3CCC2(C)CC3)cc1-c1cncc(F)c1 [Example 5, N-(3-(5-fluoropyridin-3-yl)-4-methylphenyl)-1-methyl-7-azabicyclo[2.2.1]heptane-7-carboxamide]
- IC50 (Activity (μM)): 0.3 µM
- IC50 (Activity): 0.0001 to 1 µM

SMILES: Cc1ccc(NC(=O)N2C3C[C@H]2C[C@H](n2cccn2)C3)cc1-c1cncc(F)c1 [Example 6, trans-N-(3-(5-fluoropyridin-3-yl)-4-methylphenyl)-3-(1H-pyrazol-1-yl)-6-azabicyclo[3.1.1]heptane-6-carboxamide]
- IC50 (Activity (μM)): 6.6 µM
- IC50 (Activity): 1 to 10 µM

SMILES: CO[C@@H]1CC[C@H]2CC1N2C(=O)Nc1ccc(C)c(-c2cncc(F)c2)c1 [Example 7, trans-N-(3-(5-fluoropyridin-3-yl)-4-methylphenyl)-2-methoxy-6-azabicyclo[3.1.1]heptane-6-carboxamide]
- IC50 (Activity (μM)): 2 µM
- IC50 (Activity): 1 to 10 µM

SMILES: Cc1ccc(NC(=O)N2C3C[C@H]2C[C@@H](C(C)(C)O)C3)cc1-c1cncc(F)c1 [Example 9, cis-N-(3-(5-fluoropyridin-3-yl)-4-methylphenyl)-3-(2-hydroxypropan-2-yl)-6-azabicyclo[3.1.1]heptane-6-carboxamide]
- IC50 (Activity (μM)): 4.2 µM
- IC50 (Activity): 1 to 10 µM

SMILES: Cc1ccc(NC(=O)N2C3C[C@H]2C[C@@]2(C3)CC2(F)F)cc1-c1cncc(F)c1 [Example 11, cis-2′,2′-difluoro-N-(3-(5-fluoropyridin-3-yl)-4-methylphenyl)-6-azaspiro[bicyclo[3.1.1]heptane-3,1′-cyclopropane]-6-carboxamide]
- IC50 (Activity (μM)): 0.08 µM
- IC50 (Activity): 0.0001 to 1 µM

SMILES: Cc1ccc(NC(=O)N2C3C[C@@H]2C[C@@H](C(C)(C)O)C3)cc1-c1cncc(F)c1 [Example 14, trans-N-(3-(5-fluoropyridin-3-yl)-4-methylphenyl)-3-(2-hydroxypropan-2-yl)-6-azabicyclo[3.1.1]heptane-6-carboxamide]
- IC50 (Activity (μM)): 23.9 µM
- IC50 (Activity): > 10 µM

SMILES: COC[C@H]1CC[C@H]2CC1N2C(=O)Nc1ccc(C)c(-c2cncc(F)c2)c1 [Example 15, cis-N-(3-(5-fluoropyridin-3-yl)-4-methylphenyl)-2-(methoxymethyl)-6-azabicyclo[3.1.1]heptane-6-carboxamide]
- IC50 (Activity (μM)): 1.7 µM
- IC50 (Activity): 1 to 10 µM

SMILES: Cc1ccc(NC(=O)N2C[C@@H]3CC2C[C@H]3C#N)cc1-c1cncc(F)c1 [Example 16, cis-5-cyano-N-(3-(5-fluoropyridin-3-yl)-4-methylphenyl)-2-azabicyclo[2.2.1]heptane-2-carboxamide]
- IC50 (Activity (μM)): 41 µM
- IC50 (Activity): > 10 µM

SMILES: Cc1ccc(NC(=O)N2C3C[C@H](C)C[C@@H]2C3)cc1-c1cccnc1 [Example 17, cis-3-methyl-N-(4-methyl-3-(pyridin-3-yl)phenyl)-6-azabicyclo[3.1.1]heptane-6-carboxamide]
- IC50 (Activity (μM)): 0.008 µM
- IC50 (Activity): 0.0001 to 1 µM

SMILES: Cc1ccc(NC(=O)N2CC3CCC2C3)cc1-c1cncc(F)c1 (centres unmarked) [Example 18, N-(3-(5-fluoropyridin-3-yl)-4-methylphenyl)-2-azabicyclo[2.2.1]heptane-2-carboxamide]
- IC50 (Activity (μM)): 1 µM
- IC50 (Activity): 1 to 10 µM
